Tested on: SEM cells
Experiment: cell viability relative to DMSO control; higher = less cytotoxic
Conditions: 48 h
Outline: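 Leukemia cells (NOMO1 or SEM, 500 cells/well; P12-Ichikawa, 1000 cells/well) were seeded in 5 μl in 1536-well plates after at least four passages of adaptation to each medium. They received library compounds in DMSO by pin dosing, 11 threefold points from 47 μM to 0.79 nM. Luminescence with CellTiter-Glo One was read after 48 h at 37°C. Viability is stated per plate relative to DMSO wells, with cell-free wells as background.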

[1] = RPMI 5 mM glucose + 10% FBS, 0.000781 µM
[2] = RPMI 5 mM glucose + 10% FBS, 0.00234 µM
[3] = RPMI 5 mM glucose + 10% FBS, 0.00702 µM
[4] = RPMI 5 mM glucose + 10% FBS, 0.0211 µM
[5] = RPMI 5 mM glucose + 10% FBS, 0.0632 µM
[6] = RPMI 5 mM glucose + 10% FBS, 0.19 µM
[7] = RPMI 5 mM glucose + 10% FBS, 0.569 µM
[8] = RPMI 5 mM glucose + 10% FBS, 1.71 µM
[9] = RPMI 5 mM glucose + 10% FBS, 5.12 µM
[10] = RPMI 5 mM glucose + 10% FBS, 15.4 µM
[11] = RPMI 5 mM glucose + 10% FBS, 46.1 µM
[12] = RPMI 5 mM glucose + 10% dialyzed FBS, 0.000781 µM
[13] = RPMI 5 mM glucose + 10% dialyzed FBS, 0.00234 µM
[14] = RPMI 5 mM glucose + 10% dialyzed FBS, 0.00702 µM
[15] = RPMI 5 mM glucose + 10% dialyzed FBS, 0.0211 µM
[16] = RPMI 5 mM glucose + 10% dialyzed FBS, 0.0632 µM
[17] = RPMI 5 mM glucose + 10% dialyzed FBS, 0.19 µM
[18] = RPMI 5 mM glucose + 10% dialyzed FBS, 0.569 µM
[19] = RPMI 5 mM glucose + 10% dialyzed FBS, 1.71 µM
[20] = RPMI 5 mM glucose + 10% dialyzed FBS, 5.12 µM
[21] = RPMI 5 mM glucose + 10% dialyzed FBS, 15.4 µM
[22] = RPMI 5 mM glucose + 10% dialyzed FBS, 46.1 µM
[23] = HPLM + 10% dialyzed FBS, 0.000781 µM
[24] = HPLM + 10% dialyzed FBS, 0.00234 µM
[25] = HPLM + 10% dialyzed FBS, 0.00702 µM
[26] = HPLM + 10% dialyzed FBS, 0.0211 µM
[27] = HPLM + 10% dialyzed FBS, 0.0632 µM
[28] = HPLM + 10% dialyzed FBS, 0.19 µM
[29] = HPLM + 10% dialyzed FBS, 0.569 µM
[30] = HPLM + 10% dialyzed FBS, 1.71 µM
[31] = HPLM + 10% dialyzed FBS, 5.12 µM
[32] = HPLM + 10% dialyzed FBS, 15.4 µM
[33] = HPLM + 10% dialyzed FBS, 46.1 µM

Compound | cell viability [1] [%] | cell viability [2] [%] | cell viability [3] [%] | cell viability [4] [%] | cell viability [5] [%] | cell viability [6] [%] | cell viability [7] [%] | cell viability [8] [%] | cell viability [9] [%] | cell viability [10] [%] | cell viability [11] [%] | cell viability [12] [%] | cell viability [13] [%] | cell viability [14] [%] | cell viability [15] [%] | cell viability [16] [%] | cell viability [17] [%] | cell viability [18] [%] | cell viability [19] [%] | cell viability [20] [%] | cell viability [21] [%] | cell viability [22] [%] | cell viability [23] [%] | cell viability [24] [%] | cell viability [25] [%] | cell viability [26] [%] | cell viability [27] [%] | cell viability [28] [%] | cell viability [29] [%] | cell viability [30] [%] | cell viability [31] [%] | cell viability [32] [%] | cell viability [33] [%]
NC(=O)c1ncn([C@@H]2O[C@H](CO)[C@@H](O)[C@H]2O)c1N | 81.8 | 95.1 | 89.9 | 72.7 | 95 | 83.1 | 91.7 | 68 | 66.6 | 69.7 | 18.9 | 120 | 113 | 116 | 120 | 136 | 109 | 121 | 115 | 122 | 114 | 31.5 |  |  |  |  |  |  |  |  |  |  | 
CN(C)c1ccccc1CN1CCCN(Cc2ccccc2N(C)C)C1c1ccncc1 | 75.5 | 85.3 | 102 | 15 | 104 | 99.3 | 101 | 93.9 | 93.4 | 5.51 | 49.4 | 73.4 | 79.7 | 95.1 | 18.1 | 117 | 111 | 113 | 98.3 | 98.2 | 87.8 | 80 | 81.3 | 91.2 | 86.8 | 23 | 95.2 | 94.9 | 92.5 | 92.6 | 112 | 97.1 | 83.3
COC(=O)Nc1nc2cc(Sc3ccccc3)ccc2[nH]1 | 119 | 121 | 131 | 129 | 113 | 114 | 93.2 | 91.6 | 15.3 | 18.6 | 18.2 |  |  |  |  |  |  |  |  |  |  |  | 107 | 108 | 119 | 115 | 124 | 130 | 100 | 102 | 22.6 | 24.1 | 24.2
Cc1ccccc1C(C(=O)NC1CCCC1)N(C(=O)Cn1cnc2ccccc21)c1cccc(F)c1 (stereo not given) | 120 | 126 | 121 | 128 | 127 | 122 | 126 | 122 | 122 | 112 | 83 | 119 | 107 | 128 | 125 | 137 | 119 | 120 | 113 | 126 | 118 | 84.9 | 133 | 114 | 119 | 113 | 112 | 113 | 124 | 119 | 108 | 111 | 80.9
N[S+](=O)([O-])c1cc2c(cc1Cl)NCN[S+]2(=O)[O-] | 96.2 | 115 | 109 | 104 | 110 | 107 | 114 | 119 | 124 | 116 | 120 | 88.4 | 100 | 112 | 124 | 107 | 124 | 107 | 134 | 117 | 115 | 151 | 92.5 | 102 | 101 | 94.6 | 104 | 111 | 114 | 109 | 114 | 121 | 107
O=C(/C=C/c1cccnc1)NCCCCC1CCN(C(=O)c2ccccc2)CC1 | 103 | 65.1 | 14.8 | 7.35 | 21.9 | 5.86 | 6.67 | 6.71 | 5.95 | 5.65 | 3.92 | 105 | 32 | 13.8 | 7.49 | 7.08 | 6.77 | 6.47 | 6.21 | 6.4 | 7.09 | 4.78 | 76.5 | 86.3 | 22.7 | 9.57 | 7.6 | 6.37 | 6.62 | 6.08 | 6.74 | 6.78 | 5.79
CN1C(=O)\C(=C/C2=C1N=C(NC3CCOCC3)N=C2)OC4=C(F)C=C(F)C=C4 | 112 | 100 | 125 | 112 | 105 | 112 | 121 | 105 | 97.1 | 115 | 45.6 | 93.3 | 106 | 94.8 | 68.2 | 93.8 | 96.9 | 95.9 | 92 | 96.2 | 88.3 | 42.9 | 99.6 | 97.4 | 98.4 | 102 | 99.1 | 90.3 | 93.3 | 92 | 78.9 | 92.7 | 45.6
O=C(Nc1cccc2c(=O)cc(-c3nnn[nH]3)oc12)c1ccc(OCCCCc2ccccc2)cc1 | 76.6 | 97.5 | 87 | 86.6 | 92.1 | 90.7 | 91.9 | 86.6 | 88.4 | 17.2 | 13.5 | 70.8 | 90.5 | 105 | 96.2 | 99.6 | 92.6 | 102 | 79.9 | 92.8 | 19.2 | 33.2 | 68.3 | 78.5 | 85.2 | 91.3 | 84.6 | 91.2 | 93 | 96 | 93.8 | 21.4 | 49.2
O=C(N[C@H]1CN2CCC1CC2)c1ccc(Cl)cc1 | 84 | 92.2 | 99.5 | 87.8 | 96.1 | 95.9 | 101 | 99.5 | 93.3 | 88.6 | 60.2 | 93.2 | 98.9 | 94.8 | 94.3 | 104 | 116 | 96.1 | 93.2 | 94.1 | 107 | 76.1 | 89.3 | 96.5 | 95.5 | 99.8 | 98.7 | 87.4 | 96.3 | 105 | 102 | 98.5 | 84.4
OC[C@H]1O[C@H](C[C@@H]1O)N2\C=C(\I)C(=O)NC2=O | 97.1 | 110 | 104 | 107 | 102 | 113 | 101 | 110 | 101 | 77.8 | 66.5 | 90.9 | 92.5 | 92 | 99.9 | 98.4 | 109 | 84.3 | 64.3 | 60 | 49.2 | 39.4 | 86.1 | 99.2 | 97.3 | 93 | 99 | 113 | 117 | 88.2 | 95.3 | 74.7 | 69.6
N[C@@H](Cc1cc(I)c(Oc2cc(I)c(O)c(I)c2)c(I)c1)C(=O)O | 98.2 | 105 | 103 | 106 | 59.2 | 112 | 115 | 104 | 94.2 | 88.3 | 84.6 |  |  |  |  |  |  |  |  |  |  |  | 102 | 121 | 107 | 113 | 78.2 | 129 | 119 | 120 | 117 | 93.8 | 92.2
CC(=O)O[C@@]12CO[C@@H]1C[C@H](O)[C@]3(C)[C@@H]2[C@H](OC(=O)C4=CC=CC=C4)[C@]5(O)C[C@H](O)/C(=C(/[C@@H](O)C3=O)C5(C)C)C | 70.4 | 71.5 | 19.1 | 71 | 64.7 | 72.3 | 70.1 | 65.2 | 54.2 | 18.1 | 8.94 | 90.8 | 99.6 | 43.2 | 116 | 105 | 110 | 121 | 112 | 75.1 | 29.9 | 13 | 84.3 | 108 | 43.5 | 110 | 106 | 111 | 116 | 107 | 90.2 | 35.8 | 16.3
CC(=O)OCC(CCn1cnc2cnc(N)nc21)COC(C)=O | 85.9 | 71.3 | 69.2 | 97.5 | 88.1 | 98.3 | 98.2 | 103 | 97.4 | 103 | 109 | 79.3 | 79.8 | 74.9 | 81.2 | 96 | 95.5 | 103 | 97 | 110 | 97.9 | 95.6 | 83.4 | 65.5 | 93.6 | 84.8 | 97.3 | 101 | 105 | 101 | 97.7 | 109 | 90.8
Cc1ccc(Nc2nccc(N(C)c3ccc4c(C)n(C)nc4c3)n2)cc1[S+](N)(=O)[O-] | 87.2 | 92.9 | 95.7 | 109 | 86.3 | 91.6 | 77.5 | 79.6 | 63 | 38.9 | 7.79 | 95.9 | 83 | 99.7 | 105 | 92.3 | 101 | 90.2 | 81.8 | 57.5 | 49.2 | 14.8 | 83.9 | 89 | 88 | 105 | 98.2 | 91.7 | 91.3 | 91 | 75.3 | 61.3 | 18.1
O=C(c1ccc(C(=O)N2CCC(N3CCCC3)CC2)c(Nc2ccccc2)c1)N1CCC(N2CCCC2)CC1 | 112 | 106 | 109 | 104 | 105 | 115 | 117 | 102 | 89 | 102 | 103 | 80.7 | 91.2 | 102 | 104 | 98 | 102 | 104 | 112 | 101 | 88.5 | 82.6 | 119 | 111 | 115 | 94.8 | 116 | 113 | 107 | 107 | 103 | 98.7 | 96.4
COc1ccccc1OCC(O)CN1CCN(CC(=O)Nc2c(C)cccc2C)CC1 (stereo not given) | 104 | 135 | 122 | 128 | 134 | 148 | 123 | 142 | 134 | 129 | 131 | 115 | 128 | 114 | 136 | 125 | 135 | 137 | 121 | 132 | 130 | 126 | 81.9 | 101 | 98 | 121 | 126 | 123 | 111 | 118 | 136 | 130 | 136

— the supplement of paper PMC11451515
